One data set deals with Tetranychus Urticae. Nature of the data set: Tetranychus urticae (two-spotted spider mite) feeding/contact activity on bean leaf discs. The data set is classed as in vivo. As to conditions: foliar, 192 h, application rate of 200 ppm, mixed population (mobile stages), 8 days after infestation. How it is done:
Example B4: Tetranychus Urticae (Two-Spotted Spider Mite) (Feeding/Contact Activity)
Bean leaf discs on agar in 24-well microtiter plates were sprayed with aqueous test solutions prepared from 10′000 ppm DMSO stock solutions. After drying the leaf discs were infested with a mite population of mixed ages. The samples were assessed for mortality on mixed population (mobile stages) 8 days after infestation.

A further data set concerns Spodoptera littoralis. Briefly: Spodoptera littoralis (Egyptian cotton leaf worm) cotton leaf disc spray test. Conditions: foliar, 72 h, application rate of 200 ppm, L1 larvae, 3 days after infestation, read-out: control (at least one of mortality, anti-feedant effect, growth inhibition). It is filed as in vivo. How it is done:
Example B1: Spodoptera littoralis (Egyptian Cotton Leaf Worm)
Cotton leaf discs were placed on agar in 24-well microtiter plates and sprayed with aqueous test solutions prepared from 10,000 ppm DMSO stock solutions. After drying, the leaf discs were infested with five L1 larvae. The samples were assessed for mortality, anti-feedant effect, and growth inhibition in comparison to untreated samples 3 days after infestation. Control of Spodoptera littoralis by a test sample is when at least one of mortality, anti-feedant effect, and growth inhibition is higher than the untreated sample.

The test system of the next data set is Plutella Xylostella. Nature of the data set: Plutella xylostella (diamond back moth) artificial diet test. It is filed as in vivo. Conditions: 120 h, application rate of 200 ppm, L2 larvae, 5 days after infestation, read-out: effect in at least one of the two categories (mortality or growth inhibition). The procedure: Example B2: Plutella Xylostella (Diamond Back Moth)
24-well microtiter plates with artificial diet were treated with aqueous test solutions prepared from 10,000 ppm DMSO stock solutions by pipetting. After drying, the plates were infested with L2 larvae (10 to 15 per well). The samples were assessed for mortality and growth inhibition in comparison to untreated samples 5 days after infestation.
The following compounds gave an effect of at least 80% in at least one of the two categories (mortality or growth inhibition) at an application rate of 200 ppm: P1, P2, P3, P5, P10, P11, P14 and P20.

Another data set relates to Diabrotica Balteata. Briefly: Diabrotica balteata (corn root worm) maize sprout test. It is filed as in vivo. Conditions: 96 h, application rate of 200 ppm, L2 larvae, 4 days after infestation, read-out: effect in at least one of the two categories (mortality or growth inhibition). How it is done:
Example B3: Diabrotica Balteata (Corn Root Worm)
Maize sprouts, placed on an agar layer in 24-well microtiter plates were treated with aqueous test solutions prepared from 10,000 ppm DMSO stock solutions by spraying. After drying, the plates were infested with L2 larvae (6 to 10 per well). The samples were assessed for mortality and growth inhibition in comparison to untreated samples 4 days after infestation.
The following compounds gave an effect of at least 80% in at least one of the two categories (mortality or growth inhibition) at an application rate of 200 ppm: P1, P2, P3, P4, P5, P10 and P14.

The values that follow come from patent publication US20180093951A1, “PESTICIDALLY ACTIVE CAR[…] THIOCAR[…] DERIVATIVES” (Syngenta Participations AG, priority 2015, published 2018).

In general, melting point refers to the temperature, or range, at which the solid turns liquid. The term mortality denotes the share of the test organisms that died. A lower mortality goes with a weak lethal effect.

Some results are limits rather than exact numbers.

As for `Cc1cccc(C)c1NC(=O)O/N=C/c1ccc2c(c1)C(=O)N(c1ccc(OC(F)(F)F)cc1)C2=O`, the melting point is 247 to 248 °C.

In turn, `Cc1cc(NC(=O)O/N=C/c2ccc(-c3ncn(-c4ccc(OC(F)(F)F)cc4)n3)cc2)c(C(F)(F)F)o1` [Compound P19] gave a mortality at 200 ppm in the data set on Tetranychus Urticae of no less than 80%.

As for `O=C(Nc1ccc(Cl)cc1Cl)O/N=C/c1ccc(-c2ncn(-c3ccc(OC(F)(F)F)cc3)n2)cc1`, the melting point fell in the range of 179 to 182 °C.

For the compound `Cc1cccc(C)c1NC(=O)O/N=C/c1ccc2sc(-c3ccc(OC(F)(F)F)cc3)nc2c1` [Compound P17], in the data set with Spodoptera littoralis, the percent control (mortality, anti-feedant effect or growth inhibition) at 200 ppm is no less than 80%.

On to `CC(C)c1ccccc1NC(=O)O/N=C/c1ccc(-c2ncn(-c3ccc(OC(F)(F)F)cc3)n2)cc1` (single isomer, unassigned) [Compound P2, [(E)-[4-[1-[4-(trifluoromethoxy)phenyl]-1,2,4-triazol-3-yl]phenyl]methyleneamino] N-(2-isopropylphenyl) carbamate], for which the percent control (mortality, anti-feedant effect or growth inhibition) at 200 ppm in the data set with Spodoptera littoralis was no less than 80%. Besides, the percent effect (mortality or growth inhibition) at 200 ppm in the data set with Plutella Xylostella and in the data set with Diabrotica Balteata was no less than 80% in each case.

`CC(C)c1ccccc1NC(=O)O/N=C/c1ccc2nc(-c3ccc(OC(F)(F)F)cc3)n(C)c2c1` gave a melting point of 98 to 130 °C.

As for `C/C(=N\OC(=O)Nc1ccccc1C(C)C)c1ccc(-c2ncn(-c3ccc(OC(F)(F)F)cc3)n2)cc1` [Compound P3], the percent effect (mortality or growth inhibition) at 200 ppm with Plutella Xylostella and in the data set with Diabrotica Balteata was no less than 80% each time.

As for `CC/C(=N\OC(=O)Nc1c(C)cccc1C)c1ccc(-c2ncn(-c3ccc(OC(F)(F)F)cc3)n2)cc1` [Compound P10], the percent control (mortality, anti-feedant effect or growth inhibition) at 200 ppm in the data set on Spodoptera littoralis is no less than 80%. For the same compound, the percent effect (mortality or growth inhibition) at 200 ppm in the data set with Plutella Xylostella and in the data set with Diabrotica Balteata was no less than 80% each time.

`CC/C(=N\OC(=O)Nc1ccccc1C(C)C)c1ccc(-c2ncn(-c3ccc(OC(F)(F)F)cc3)n2)cc1`: the melting point lay within 170 to 171 °C.

In the case of `C/C(=N\OC(=O)Nc1c(C)cccc1C)c1ccc(-c2ncn(-c3ccc(OC(F)(F)F)cc3)n2)cc1` [Compound P5], the percent control (mortality, anti-feedant effect or growth inhibition) at 200 ppm in the data set with Spodoptera littoralis was no less than 80%. The percent effect (mortality or growth inhibition) at 200 ppm in the data set on Plutella Xylostella and in the data set on Diabrotica Balteata was no less than 80% each time.

Turning to `CC(C)c1ccccc1NC(=O)O/N=C\c1ccc(-c2ncn(-c3ccc(OC(F)(F)F)cc3)n2)cc1` (single isomer, unassigned) [Compound P1, [(Z)-[4-[1-[4-(trifluoromethoxy)phenyl]-1,2,4-triazol-3-yl]phenyl]methyleneamino] N-(2-isopropylphenyl) carbamate], in the data set with Spodoptera littoralis, the percent control (mortality, anti-feedant effect or growth inhibition) at 200 ppm is no less than 80%. The percent effect (mortality or growth inhibition) at 200 ppm with Plutella Xylostella and in the data set on Diabrotica Balteata was no less than 80% throughout.

In turn, `COc1ccccc1NC(=O)O/N=C/c1ccc(-c2ncn(-c3ccc(OC(F)(F)F)cc3)n2)cc1` displayed a melting point of 182 to 183 °C.

`O=C(Nc1ccccc1)O/N=C/c1ccc(-c2ncn(-c3ccc(OC(F)(F)F)cc3)n2)cc1`: the melting point lay within 174 to 180 °C.

`O=C(Nc1cscc1Br)O/N=C/c1ccc(-c2ncn(-c3ccc(OC(F)(F)F)cc3)n2)cc1` came in with a melting point of 197 to 198 °C.

The compound `Cc1cccc(C)c1NC(=O)O/N=C/c1ccc2c(c1)nc(-c1ccc(OC(F)(F)F)cc1)n2C` registered a melting point of 68 to 124 °C.

`CC(C)c1ccccc1NC(=O)O/N=C/c1ccc2c(c1)nc(-c1ccc(OC(F)(F)F)cc1)n2C`: the melting point is 93 to 130 °C.

`Cc1cccc(C)c1NC(=O)O/N=C/c1ccc2nc(-c3ccc(OC(F)(F)F)cc3)n(C)c2c1`: the melting point was in the range of 68 to 124 °C.

With `O=C(Nc1ccccc1Cl)O/N=C/c1ccc(-c2ncn(-c3ccc(OC(F)(F)F)cc3)n2)cc1`, the melting point is 183 to 184 °C.

Consider `CC/C(=N\OC(=O)Nc1ccccc1C(F)(F)F)c1ccc(-c2ncn(-c3ccc(OC(F)(F)F)cc3)n2)cc1`, for which the melting point was 151 to 154 °C.

Take `Cc1cccc(C)c1NC(=O)O/N=C/c1ccc(-c2ncn(-c3ccc(OC(F)(F)F)cc3)n2)cc1` [Compound P14]: the percent effect (mortality or growth inhibition) at 200 ppm in the data set with Plutella Xylostella and in the data set on Diabrotica Balteata was no less than 80% throughout.

For `C/C(=N\OC(=O)Nc1ccccc1C(F)(F)F)c1ccc(-c2ncn(-c3ccc(OC(F)(F)F)cc3)n2)cc1` [Compound P4, [1-[4-[1-[4-(trifluoromethoxy)phenyl]-1,2,4-triazol-3-yl]phenyl]ethylideneamino]N-[2-(trifluoromethyl)phenyl]carbamate], in the data set with Diabrotica Balteata, the percent effect (mortality or growth inhibition) at 200 ppm was no less than 80%.

For `Cc1cccc(C)c1NC(=O)O/N=C/CCc1ccc(-c2ncn(-c3ccc(OC(F)(F)F)cc3)n2)cc1` [Compound P11], in the data set on Plutella Xylostella, the percent effect (mortality or growth inhibition) at 200 ppm is no less than 80%.

`O=C(Nc1ccccc1C(F)(F)F)O/N=C/c1ccc(-c2ncn(-c3ccc(OC(F)(F)F)cc3)n2)cc1` returned a melting point of 179 to 180 °C.

As to `O=C(Nc1ccc(Cl)nc1)O/N=C/c1ccc(-c2ncn(-c3ccc(OC(F)(F)F)cc3)n2)cc1` [Compound P20], the percent control (mortality, anti-feedant effect or growth inhibition) at 200 ppm in the data set with Spodoptera littoralis was no less than 80%. Also, the percent effect (mortality or growth inhibition) at 200 ppm with Plutella Xylostella is no less than 80%. This compound showed a mortality at 200 ppm in the data set with Tetranychus Urticae of no less than 80%.
